The values that follow come from patent publication US9884806B2, “Cyclic vinylogous amides as bromodomain inhibitors” (ICAHN SCHOOL OF MEDICINE AT MOUNT SINAI, priority 2013, dated 2018).

Experiment [1] deals with T1, BRD4_2 (Homo sapiens, UniProt O60885).
T1 construct: contains two tandem bromodomains (BrD1 and BrD2)
Kind of experiment: Fluorescence anisotropy binding assay (competition with FITC-labeled MS417 probe), BRD4_2. Conditions: FITC-MS417 probe 80 nM, PBS pH 7.4, 1 hour, 25° C. For orientation: Polarisation of emitted light reports the rotation of a fluorescent probe.

Experiment [2] deals with T2, first bromodomain (BrD1) of human BRD4 (Homo sapiens, UniProt O60885).
T2 construct: the first bromodomain (BrD1) of human BRD4; poly-His (cleaved yes); made in house
Kind of experiment: Fluorescence anisotropy binding assay (competition with FITC-labeled MS417 probe). Particulars: FITC-MS417 probe 80 nM, PBS pH 7.4, 1 hour, 25° C., read-out: BRD4_1 IC50. As to the method:
Fluorescence Anisotropy Binding Assay
Expression and purification of the first bromodomain (BrD1) of human BRD4 in poly-His tag form was performed using a procedure described in the literature [See Zeng et al. Structure 16, 643-652 (2008) and Zhang et al., J Biol Chem 287, 28840-28851 (2012).] The protein was purified by using affinity chromatography on a nickel-IDA column (Invitrogen), followed by the removal of poly-His tag by thrombin cleavage.
Binding affinity of the newly synthesized compounds to the BRD4 BrD1 was assessed in a fluorescence anisotropy assay using a fluorescein isothiocyanate (FITC)-labeled MS417 as an assay probe (Zhang et al. 2008 op.cit.). Competition binding was performed with a BrD protein (0.25 to 1 μM) and the fluorescent probe (80 nM), and increasing concentration of unlabeled competing ligand in a PBS buffer (pH 7.4) in total volume of 80 μL. Measurements were obtained after 1 hour incubation of the fluorescent ligand and the protein at 25° C. with Safire 2 microplate reader (Tecan). In the assay, fluorescent ligand concentration was ≦2Kd, and protein concentration was set at which 50-80% of fluorescent ligand is bound. Dissociation constant of a competing ligand was calculated with the correction to Cheng-Prussoff equation introduced by Nicolovska-Coleska and colleagues [Nikolovska-Coleska, Z. et al., Anal Biochem 332, 261-273 (2004). Assuming one-site competitive binding model, the equation used to calculate Ki's from IC50 values recovered from fitting data using Prism:
[formula] where [I50] is the concentration of free inhibitor at 50% inhibition, [L50], the concentration of free labeled ligand at 50% inhibition, and [P0], concentration of free protein at 0% inhibition. Note that Kd for each protein-probe pair is the limit of resolvable Ki in a competition assay.

A word on the IC50: it is the concentration at which inhibition is half-maximal.

With `CC1=C(Nc2ccc(C(=O)Nc3ccc(C)cc3)cc2)CCC1=O` [Example 03-7], the IC50 in experiment [1] and in experiment [2] was 1 to 10 µM in each case.

Consider `CC1=C(Nc2ccc(C(=O)Nc3cccc(C)c3)cc2)CCC1=O` [Example 03-9], for which the IC50 in experiment [1] and in experiment [2] was 1 to 10 µM throughout.

For the molecule `COc1ccccc1NC(=O)c1ccc(NC2=C(C)C(=O)CC2)cc1` [Example 03-10, N-(2-methoxyphenyl)-4-((2-methyl-3-oxocyclopent-1-en-1-yl)amino)benzamide], the IC50 in experiment [1] and in experiment [2] was 1 to 10 µM throughout.

As to `COc1cccc(NC(=O)c2ccc(NC3=C(C)C(=O)CC3)cc2)c1` [Example 03-11, N-(3-methoxyphenyl)-4-((2-methyl-3-oxocyclopent-1-en-1-yl)amino)benzamide], the IC50 in experiment [1] is more than 10 µM; in experiment [2], 1 to 10 µM.

In the case of `CC1=C(Nc2ccc(C(=O)Nc3cccc4ccccc34)cc2)CCC1=O` [Example 03-16, 4-((2-methyl-3-oxocyclopent-1-en-1-yl)amino)-N-(naphthalen-1-yl)benzamide], the IC50 in experiment [1] and in experiment [2] was 1 to 10 µM in each case.

As for `CC1=C(Nc2ccc(C(=O)NCc3ccccc3)cc2)CCC1=O` [Example 03-18, N-benzyl-4-((2-methyl-3-oxocyclopent-1-en-1-yl)amino)benzamide], the IC50 in experiment [1] and in experiment [2] was 1 to 10 µM each time.

Consider `CC1=C(Nc2ccc(C(=O)NC3CCCCC3)cc2)CCC1=O` [Example 03-19, N-cyclohexyl-4-((2-methyl-3-oxocyclopent-1-en-1-yl)amino)benzamide], for which the IC50 in experiment [1] and in experiment [2] was 1 to 10 µM throughout.

For the molecule `CC1=C(Nc2ccc(C(=O)N(C)C)cc2)CCC1=O` [Example 03-20, N,N-dimethyl-4-((2-methyl-3-oxocyclopent-1-en-1-yl)amino)benzamide], the IC50 in experiment [1] and in experiment [2] was more than 10 µM each time.

For `CC1=C(Nc2cccc(C(=O)Nc3ccccc3)c2)CCC1=O` [Example 03-23, 3((2-methyl-3-oxocyclopent-1-en-1-yl)amino)-N-phenylbenzamide], the IC50 in experiment [1] and in experiment [2] was 1 to 10 µM in each case.

Regarding `CC1=C(Nc2cccc(C(=O)NC3CCCCC3)c2)CCC1=O` [Example 04-1], the IC50 in experiment [1] and in experiment [2] was 1 to 10 µM throughout.

With `CC1=C(Nc2cccc(C(=O)Nc3cccc4ccccc34)c2)CCC1=O` [Example 04-2], the IC50 in experiment [1] and in experiment [2] was 1 to 10 µM in each case.

Turning to `CC1=C(Nc2cccc(C(=O)Nc3ccncc3)c2)CCC1=O` [Example 04-3], the IC50 in experiment [1] is more than 10 µM; in experiment [2], 1 to 10 µM.

Regarding `COc1ccc(NC(=O)c2cccc(NC3=C(C)C(=O)CC3)c2)cc1` [Example 04-4], the IC50 in experiment [1] and in experiment [2] was 1 to 10 µM each time.

In the case of `CC1=C(Nc2cccc(C(=O)Nc3ccccc3C)c2)CCC1=O` [Example 04-5], the IC50 in experiment [1] and in experiment [2] was 1 to 10 µM each time.

`CC1=C(Nc2cccc(C(=O)Nc3cccc(C)c3)c2)CCC1=O` [Example 04-6]: the concentration for half-maximal inhibition (IC50) in experiment [1] was more than 10 µM; in experiment [2] it was 1 to 10 µM.

As to `CC1=C(Nc2cccc(C(=O)Nc3ccc(C)cc3)c2)CCC1=O` [Example 04-7], the IC50 in experiment [1] was more than 10 µM; in experiment [2], 1 to 10 µM.

Turning to `CC1=C(Nc2cccc(C(=O)Nc3ccccc3F)c2)CCC1=O` [Example 04-8], the IC50 in experiment [1] and in experiment [2] was 1 to 10 µM in each case.

`CNC(=O)c1ccc(NC2=C(C)C(=O)CC2)c(Cl)c1` [Example 04-13, 3-chloro-N-methyl-4-((2-methyl-3-oxocyclopent-1-en-1-yl)amino)benzamide]: the IC50 in experiment [1] and in experiment [2] was 1 to 10 µM in each case.

Consider `CC1=C(Nc2ccc(C(=O)NC3CCCCC3)cc2Cl)CCC1=O` [Example 04-14, 3-chloro-N-cyclohexyl-4-((2-methyl-3-oxocyclopent-1-en-1-yl)amino)benzamide], for which the IC50 in experiment [1] is 1 to 10 µM; in experiment [2] it was less than 1 µM.

Regarding `CC1=C(Nc2ccc(C(=O)Nc3ccccc3)cc2Cl)CCC1=O` [Example 04-16, 3-chloro-4-((2-methyl-3-oxocyclopent-1-en-1-yl)amino)-N-phenylbenzamide], the IC50 in experiment [1] and in experiment [2] was 1 to 10 µM each time.

As to `COc1cccc(NC(=O)c2ccc(NC3=C(C)C(=O)CC3)c(Cl)c2)c1` [Example 04-18, 3-chloro-N-(3-methoxyphenyl)-4-((2-methyl-3-oxocyclopent-1-en-1-yl)amino)benzamide], the IC50 is 1 to 10 µM in experiment [1] and less than 1 µM in experiment [2].

For `CC1=C(Nc2ccc(C(=O)Nc3cccc(C)c3)cc2Cl)CCC1=O` [Example 04-21, 3-chloro-4-((2-methyl-3-oxocyclopent-1-en-1-yl)amino)-N-(m-tolyl)benzamide], the IC50 was 1 to 10 µM in experiment [1] and less than 1 µM in experiment [2].

Regarding `CC1=C(Nc2ccc(C(=O)Nc3ccc(C)cc3)cc2Cl)CCC1=O` [Example 04-22, 3-chloro-4-((2-methyl-3-oxocyclopent-1-en-1-yl)amino)-N-(p-tolyl)benzamide], the IC50 in experiment [1] and in experiment [2] was 1 to 10 µM each time.

In the case of `CC1=C(N[C@H]2CC[C@H](C(=O)Nc3ccccc3)CC2)CCC1=O` [Example 04-26, (1R,4R)-4-((2-methyl-3-oxocyclopent-1-en-1-yl)amino)-N-phenylcyclohexane-carboxamide], the IC50 in experiment [1] and in experiment [2] was more than 10 µM in each case.

Turning to `CC1=C(N[C@H]2CC[C@H](C(=O)Nc3ccccc3C)CC2)CCC1=O` [Example 04-30, (1R,4R)-4-((2-methyl-3-oxocyclopent-1-en-1-yl)amino)-N-(o-tolyl)cyclohexanecarboxamide], the IC50 in experiment [1] and in experiment [2] was more than 10 µM each time.

Consider `CC1=C(N[C@H]2CC[C@H](C(=O)Nc3ccc(C)cc3)CC2)CCC1=O` [Example 04-32, (1R,4R)-4-((2-methyl-3-oxocyclopent-1-en-1-yl)amino)-N-(p-tolyl)-cyclohexanecarboxamide], for which the IC50 in experiment [1] and in experiment [2] was more than 10 µM each time.

On to `CC1=C(N[C@H]2CC[C@@H](C(=O)Nc3ccccc3)CC2)CCC1=O` [Example 04-36, (1S,4S)-4-((2-methyl-3-oxocyclopent-1-en-1-yl)amino)-N-phenylcyclohexane-carboxamide], for which the IC50 in experiment [1] and in experiment [2] was more than 10 µM throughout.

For the molecule `CC1=C(N[C@H]2CC[C@@H](C(=O)Nc3ccc(C)cc3)CC2)CCC1=O` [Example 04-40], the IC50 in experiment [1] and in experiment [2] was more than 10 µM in each case.

Consider `CC1=C(Nc2ccc(C(=O)NC3CCCCC3)c(Cl)c2)CCC1=O` [Example 04-43, 2-chloro-N-cyclohexyl-4-((2-methyl-3-oxocyclopent-1-en-1-yl)amino)benzamide], for which the IC50 in experiment [1] and in experiment [2] was more than 10 µM throughout.

As for `CC1=C(Nc2ccc(C(=O)Nc3cccc4ccccc34)c(Cl)c2)CCC1=O` [Example 04-44, 2-chloro-4-((2-methyl-3-oxocyclopent-1-en-1-yl)amino)-N-(naphthalen-1-yl)-benzamide], the IC50 was more than 10 µM in experiment [1] and 1 to 10 µM in experiment [2].

With `CC1=C(Nc2ccc(C(=O)Nc3ccccc3)c(Cl)c2)CCC1=O` [Example 04-45, 2-chloro-4-((2-methyl-3-oxocyclopent-1-en-1-yl)amino)-N-phenylbenzamide], the IC50 in experiment [1] and in experiment [2] was more than 10 µM in each case.

In the case of `COc1ccccc1NC(=O)c1ccc(NC2=C(C)C(=O)CC2)cc1Cl` [Example 04-46, 2-chloro-N-(2-methoxyphenyl)-4-((2-methyl-3-oxocyclopent-1-en-1-yl)amino)benzamide], the IC50 in experiment [1] is more than 10 µM; in experiment [2], 1 to 10 µM.

As to `COc1cccc(NC(=O)c2ccc(NC3=C(C)C(=O)CC3)cc2Cl)c1` [Example 04-47, 2-chloro-N-(3-methoxyphenyl)-4-((2-methyl-3-oxocyclopent-1-en-1-yl)amino)benzamide], the IC50 in experiment [1] and in experiment [2] was more than 10 µM throughout.

As for `COc1ccc(NC(=O)c2ccc(NC3=C(C)C(=O)CC3)cc2Cl)cc1` [Example 04-48, 2-chloro-N-(4-methoxyphenyl)-4-((2-methyl-3-oxocyclopent-1-en-1-yl)amino)-benzamide], the IC50 in experiment [1] and in experiment [2] was 1 to 10 µM each time.

For the molecule `CC1=C(Nc2ccc(C(=O)Nc3ccccc3C)c(Cl)c2)CCC1=O` [Example 04-49, 2-chloro-4-((2-methyl-3-oxocyclopent-1-en-1-yl)amino)-N-(o-tolyl)benzamide], the IC50 was more than 10 µM in experiment [1] and 1 to 10 µM in experiment [2].
